Results published in ChEMBL document CHEMBL1127436, “[(3-Pyridylalkyl)piperidylidene]benzocycloheptapyridine derivatives as dual antagonists of PAF and histamine” (J Med Chem, 1994).

How the values were obtained:
Format in all cases: functional
[1] = test system: Mus musculus; assay: Antiallergic activity was evaluated using active anaphylactic test after po administration of 10 (mg/kg) in mice
[2] = species: Mus musculus; assay: Dose required to inhibit PAF-induced mortality; details: read-out: ID50 (the source's name)
[3] = species: Oryctolagus cuniculus; assay: Concentration required to inhibit PAF-induced maximum aggregation
[4] = test system: Rattus norvegicus; assay: Intravenous dose required to reduce the lowering of the arterial blood pressure caused by PAF; details: for ED50: Rattus norvegicus, Arterial blood, iv, read-out: ID50 (the source's name)
[5] = species: Cavia porcellus; assay: Tested for concentration required to inhibit H1 histamine -induced guinea pig ileum contraction
[6] = test system: Mus musculus; assay: Antiallergic activity was evaluated using active anaphylactic test after po administration in mice; details: read-out: ID50 (the source's name)
[7] = species: Cavia porcellus; assay: Tested for concentration required to inhibit histamine -induced ileum contraction
[8] = test system: Rattus norvegicus; assay: Tested at 10 (mg/kg) intravenous dose for percent inhibition of the arterial blood pressure in normotensive rats caused by histamine
[9] = test system: Rattus norvegicus; assay: Tested at 30 (mg/kg) dose for percent inhibition required to inhibit mortality in sensitized animals by histamine
[10] = test system: Rattus norvegicus; assay: Tested at 10 (mg/kg) intravenous dose for percent inhibition required to reduce the lowering of the arterial blood pressure caused by histamine
[11] = test system: Mus musculus; assay: Antiallergic activity was evaluated using active anaphylactic test after po administration of 30 (mg/kg) in mice
[12] = test system: Mus musculus; assay: Tested for effect on central nervous system in mice at 100 mg/kg peroral dose for spontaneous motor activity (SMA) expressed as percentage relative to control; details: route oral
[13] = species: Rattus norvegicus; assay: Tested for dose required to inhibit endotoxin induced mortality in rats; details: read-out: ID50 (the source's name)
[14] = species: Mus musculus; assay: Tested for dose required to inhibit endotoxin induced mortality in mice; details: read-out: ID50 (the source's name)
[15] = species: Rattus norvegicus; assay: Tested for dose required to inhibit antigen induced increased permeability; details: read-out: ID50 (the source's name)
[16] = test system: Mus musculus; assay: Tested for effect on central nervous system in mice at 100 mg/kg peroral dose barbiturate-sleeping time (BST); details: route oral

SMILES | ED50 [2] [mg/kg] | IC50 [3] [nM] | ED50 [4] [mg/kg] | IC50 [5] [nM] | ED50 [6] [mg/kg] | other results
CSc1ncccc1C(=O)N1CCC(=C2c3ccc(Cl)cc3CCc3cccnc32)CC1 | > 30 | 20000 | > 5 | – | – | Inhibition [1]: 50%
COc1ccc(C(=O)N2CCC(=C3c4ccc(Cl)cc4CCc4cccnc43)CC2)cn1 | 30 | > 100000 | – | 34 | 5.5 | ID50 [4]: > 5 mg/kg
O=C(c1cccnc1O)N1CCC(=C2c3ccc(Cl)cc3CCc3cccnc32)CC1 | > 30 | > 100000 | – | – | – | Inhibition [1]: 56%
O=C(c1cccnc1Cl)N1CCC(=C2c3ccc(Cl)cc3CCc3cccnc32)CC1 | – | > 100000 | – | – | > 30 | IC50 [7]: 130 nM
O=C(c1ccc(Cl)nc1)N1CCC(=C2c3ccc(Cl)cc3CCc3cccnc32)CC1 | 20 | > 100000 | > 1 | – | 1.9 | IC50 [7]: 64 nM
Cc1cncc(C(=O)N2CCC(=C3c4ccc(Cl)cc4CCc4cccnc43)CC2)c1 | – | 3100 | > 5 | 350 | 12 | –
COc1ccc(CN2CCC(=C3c4ccc(Cl)cc4CCc4cccnc43)CC2)cn1 | < 30 | 37000 | – | 380 | 5.9 | –
Clc1ccc2c(c1)CCc1cccnc1C2=C1CCN(Cc2ccncc2)CC1 | – | 1800 | – | 94 | 6.1 | Inhibition [8]: 85.1%
COC(=O)c1ccncc1C(=O)N1CCC(=C2c3ccc(Cl)cc3CCc3cccnc32)CC1 | > 30 | 17000 | > 5 | – | 11 | –
CC(c1cccnc1)N1CCC(=C2c3ccc(Cl)cc3CCc3cccnc32)CC1.Cl (centres undefined) | > 30 | 8200 | > 5 | – | > 30 | –
Cl.Clc1ccc2c(c1)CCc1cccnc1C2=C1CCN(CCc2cccnc2)CC1 | > 30 | 34000 | > 5 | 360 | > 30 | Inhibition [8]: 95.4%
Cc1ccc(CN2CCC(=C3c4ccc(Cl)cc4CCc4cccnc43)CC2)cn1.Cl | – | 9000 | – | 37 | 12 | Inhibition [8]: 96.4%
COC(=O)c1cncc(CN2CCC(=C3c4ccc(Cl)cc4CCc4cccnc43)CC2)c1.Cl | – | > 100000 | > 5 | 190 | – | –
Clc1ccc2c(c1)CCc1cccnc1C2=C1CCN(Cc2cncc(Br)c2)CC1 | 10 | 720 | – | 280 | 17 | Inhibition [8]: 61.9%
O=C(c1cncc(Br)c1)N1CCC(=C2c3ccc(Cl)cc3CCc3cccnc32)CC1 | > 30 | 3400 | > 5 | – | > 30 | –
[O-][n+]1cccc(CN2CCC(=C3c4ccc(Cl)cc4CCc4cccnc43)CC2)c1 | > 30 | 14000 | > 5 | – | – | Inhibition [9]: 56%

SMILES | ED50 [2] [mg/kg] | IC50 [3] [nM] | ED50 [4] [mg/kg] | IC50 [5] [nM] | ED50 [6] [mg/kg] | other results
O=C(c1ccc(O)nc1)N1CCC(=C2c3ccc(Cl)cc3CCc3cccnc32)CC1 | > 3 | 1500 | 1.5 | 390 | > 30 | Inhibition [8]: 67%
COc1ncccc1CN1CCC(=C2c3ccc(Cl)cc3CCc3cccnc32)CC1 | – | 6000 | > 5 | – | 17 | –
Clc1ccc2c(c1)CCc1cccnc1C2=C1CCN(Cc2cccnc2)CC1 | – | 4000 | – | 93 | 6.7 | Inhibition [8]: 83.6%
O=C(c1cc[n+]([O-])cc1)N1CCC(=C2c3ccc(Cl)cc3CCc3cccnc32)CC1 | – | 220 | – | – | 12 | IC50 [7]: 210 nM; Inhibition [10]: 46.2%
Clc1ccc2c(c1)CCc1cccnc1C2=C1CCN(Cc2cccnc2Cl)CC1 | – | > 100000 | – | – | 4.5 | IC50 [7]: 350 nM
Clc1ccc2c(c1)CCc1cccnc1C2=C1CCN(Cc2ccc(Cl)nc2)CC1 | 20 | > 100000 | – | – | 6.9 | –
Cc1ccncc1CN1CCC(=C2c3ccc(Cl)cc3CCc3cccnc32)CC1 | 10 | 15000 | – | 35 | – | Inhibition [11]: 56%
Cc1ncccc1CN1CCC(=C2c3ccc(Cl)cc3CCc3cccnc32)CC1 | – | 13000 | – | 270 | – | Inhibition [11]: 50%
O=C(O)c1cncc(CN2CCC(=C3c4ccc(Cl)cc4CCc4cccnc43)CC2)c1 | > 30 | 85000 | > 5 | 350 | 6.5 | –
CN1C(=O)CN=C(c2ccccc2)c2cc(Cl)ccc21 [DIAZEPAM] | – | – | – | – | – | Relative to control [12]: 54%
CN(C)CCOC(c1ccccc1)c1ccccc1 [DIPHENHYDRAMINE] | – | – | – | – | – | ED50 [13]: > 5 mg/kg; ED50 [14]: > 10 mg/kg
CCOC(=O)N1CCC(=C2c3ccc(Cl)cc3CCc3cccnc32)CC1 [LORATADINE] | – | – | – | – | 19 | ED50 [15]: 2.4 mg/kg; ED50 [13]: > 5 mg/kg; Inhibition [8]: 66.3%; X [16]: 320 min; Relative to control [12]: 106%; ED50 [14]: > 10 mg/kg
Cc1cncc(CN2CCC(=C3c4ccc(Cl)cc4CCc4cccnc43)CC2)c1 [RUPATADINE] | – | 3700 | – | – | 13 | ED50 [15]: 1.2 mg/kg; ED50 [13]: 0.5 mg/kg; Inhibition [8]: 89%; X [16]: 138 min; Relative to control [12]: 97%; ED50 [14]: 1.2 mg/kg
CC(=O)N1CCC(=C2c3ccc(Cl)cc3CCc3cccnc32)CC1 [SCH-37370] | – | 840 | – | 100 | 19 | ED50 [15]: 10 mg/kg; ED50 [13]: > 5 mg/kg; Inhibition [8]: 55.1%; X [16]: 296 min; ED50 [14]: > 10 mg/kg
CC(C)(C)c1ccc(C(O)CCCN2CCC(C(O)(c3ccccc3)c3ccccc3)CC2)cc1 (centres undefined) [TERFENADINE] | – | – | – | – | – | X [16]: 133 min; Relative to control [12]: 90%
